Values after ≈ are worked out from the molar mass of the structure shown. Active and inactive are the calls of the source. The rule behind the calls is not given here.
Assays:
[1] = system: Escherichia coli; assay: Antibacterial activity against Escherichia coli MTCC 1652 at 4 mg/ml after 24 hr by agar well diffusion assay; format: functional, organism-based
[2] = system: Candida albicans; assay: Antifungal activity against Candida albicans MTCC 227 after 24 hr by modified agar well diffusion assay; format: functional
[3] = system: Rattus norvegicus; assay: Anti-inflammatory activity in Rattus norvegicus Wistar albino (rat) assessed as inhibition of carrageenan-induced paw edema at 50 mg/kg, po administered 30 min prior to carrageenan-challenge measured at 1 hr by plethysmometric analysis relative to control; format: functional
[4] = system: Rattus norvegicus; assay: Anti-inflammatory activity in Rattus norvegicus Wistar albino (rat) assessed as inhibition of carrageenan-induced paw edema at 50 mg/kg, po administered 30 min prior to carrageenan-challenge measured at 3 hr by plethysmometric analysis relative to control; format: functional
[5] = system: Pseudomonas aeruginosa; assay: Antibacterial activity against Pseudomonas aeruginosa MTCC 741 at 4 mg/ml after 24 hr by agar well diffusion assay; format: functional, organism-based
[6] = system: Rattus norvegicus; assay: Anti-inflammatory activity in Rattus norvegicus Wistar albino (rat) assessed as inhibition of carrageenan-induced paw edema at 50 mg/kg, po administered 30 min prior to carrageenan-challenge measured at 4 hr by plethysmometric analysis relative to control; format: functional
[7] = system: Bacillus subtilis; assay: Antibacterial activity against Bacillus subtilis MTCC 121 at 4 mg/ml after 24 hr by agar well diffusion assay; format: functional; conditions: MTCC 121, 24 h, read-out: DIZ
[8] = system: Staphylococcus aureus; assay: Antibacterial activity against Staphylococcus aureus MTCC 96 at 4 mg/ml after 24 hr by agar well diffusion assay; format: functional; conditions: MTCC 96, 24 h, read-out: DIZ
[9] = system: Rattus norvegicus; assay: Anti-inflammatory activity in Rattus norvegicus Wistar albino (rat) assessed as inhibition of carrageenan-induced paw edema at 50 mg/kg, po administered 30 min prior to carrageenan-challenge measured at 2 hr by plethysmometric analysis relative to control; format: functional
[10] = system: Saccharomyces cerevisiae; assay: Antifungal activity against Saccharomyces cerevisiae MTCC 170 after 24 hr by modified agar well diffusion assay; format: functional
[11] = system: Saccharomyces cerevisiae; assay: Antifungal activity against Saccharomyces cerevisiae MTCC 170 at 4 mg/ml after 24 hr by agar well diffusion assay; format: functional; conditions: for zone of inhibition at 4000 µg/mL: MTCC 170, 24 h, read-out: DIZ
[12] = system: Candida albicans; assay: Antifungal activity against Candida albicans MTCC 227 at 4 mg/ml after 24 hr by agar well diffusion assay; format: functional; conditions: for zone of inhibition at 4000 µg/mL: MTCC 227, 24 h, read-out: DIZ
[13] = system: Staphylococcus aureus; assay: Antibacterial activity against Staphylococcus aureus MTCC 96 after 24 hr by modified agar well diffusion assay; format: functional; conditions: MTCC 96, 24 h
[14] = system: Bacillus subtilis; assay: Antibacterial activity against Bacillus subtilis MTCC 121 after 24 hr by modified agar well diffusion assay; format: functional; conditions: MTCC 121, 24 h
[15] = system: Rattus norvegicus; assay: Anti-inflammatory activity in Rattus norvegicus Wistar albino (rat) assessed as inhibition of carrageenan-induced paw edema at 4 mg/kg, ip administered 30 min prior to carrageenan-challenge measured at 1 hr by plethysmometric analysis relative to control; format: functional; conditions: route intraperitoneal
[16] = system: Rattus norvegicus; assay: Anti-inflammatory activity in Rattus norvegicus Wistar albino (rat) assessed as inhibition of carrageenan-induced paw edema at 4 mg/kg, ip administered 30 min prior to carrageenan-challenge measured at 4 hr by plethysmometric analysis relative to control; format: functional; conditions: route intraperitoneal
[17] = system: Rattus norvegicus; assay: Anti-inflammatory activity in Rattus norvegicus Wistar albino (rat) assessed as inhibition of carrageenan-induced paw edema at 4 mg/kg, ip administered 30 min prior to carrageenan-challenge measured at 3 hr by plethysmometric analysis relative to control; format: functional; conditions: route intraperitoneal
[18] = system: Rattus norvegicus; assay: Anti-inflammatory activity in Rattus norvegicus Wistar albino (rat) assessed as inhibition of carrageenan-induced paw edema at 4 mg/kg, ip administered 30 min prior to carrageenan-challenge measured at 2 hr by plethysmometric analysis relative to control; format: functional; conditions: route intraperitoneal

Row | SMILES | MIC [2] | MIC [10] | MIC [13] | MIC [14] | MIC ([2]; MTCC 227, 24 h) | MIC ([10]; MTCC 170, 24 h) | Activity [1] | inhibition in vivo at 50 mg/kg [3] | inhibition in vivo at 50 mg/kg [4] | Activity [5] | inhibition in vivo at 50 mg/kg [6] | zone of inhibition at 4000 µg/mL [7] | zone of inhibition at 4000 µg/mL [8] | inhibition in vivo at 50 mg/kg [9] | diameter of the inhibition zone (DIZ) [11] | diameter of the inhibition zone (DIZ) [12] | zone of inhibition at 4000 µg/mL [11] | zone of inhibition at 4000 µg/mL [12] | further results
1 | COc1ccc(C2CC(c3ccc(Cl)cc3)=NN2c2ccc(S(N)(=O)=O)cc2)cc1OC (centres undefined) | inactive | inactive | 256 µg/mL (≈ 542 µM) | 128 µg/mL (≈ 271 µM) |  |  | inactive | 57.9% | 68.3% | inactive | 49.5% | 17.3 mm | 13.6 mm | 64.6% | inactive | inactive |  |  | 
2 | COc1cc(OC)cc(C2CC(c3ccc(Cl)cc3)=NN2c2ccc(S(N)(=O)=O)cc2)c1 (centres undefined) |  |  | > 256 µg/mL | > 256 µg/mL | > 256 µg/mL | 64 µg/mL (≈ 136 µM) | inactive | 11.6% | 46.1% | inactive | 46.4% | 13.6 mm | 12 mm | 26.8% |  |  | 16.3 mm | 12.6 mm | 
3 | O=C(O)c1cn(C2CC2)c2cc(N3CCNCC3)c(F)cc2c1=O [CIPROFLOXACIN] |  |  | 5 µg/mL (≈ 15.1 µM) | 5 µg/mL (≈ 15.1 µM) |  |  |  |  |  |  |  | 24 mm | 26.6 mm |  |  |  |  |  | 
4 | COc1ccc(C2=NN(c3ccc(S(N)(=O)=O)cc3)C(c3ccc(OC)cc3OC)C2)c(O)c1 (centres undefined) | inactive | inactive | 128 µg/mL (≈ 265 µM) | 64 µg/mL (≈ 132 µM) |  |  | inactive | 33.3% | 40.6% | inactive | 37.1% | 18.6 mm | 15.6 mm | 16.5% | inactive | inactive |  |  | 
5 | COc1cc(OC)cc(C2CC(c3ccc(OC)cc3O)=NN2c2ccc(S(N)(=O)=O)cc2)c1 (centres undefined) | inactive | inactive | 256 µg/mL (≈ 529 µM) | 256 µg/mL (≈ 529 µM) |  |  | inactive | 31.9% | 62.8% | inactive | 50% | 14.3 mm | 13.3 mm | 57.5% | inactive | inactive |  |  | 
6 | C[C@@H]1[C@H](O)[C@@H](C)/C=C/C=C/C=C/C=C/C=C/C=C/C=C/[C@H](O[C@@H]2O[C@H](C)[C@@H](O)[C@H](N)[C@@H]2O)C[C@@H]2O[C@](O)(C[C@@H](O)C[C@@H](O)[C@H](O)CC[C@@H](O)C[C@@H](O)CC(=O)O[C@H]1C)C[C@H](O)[C@H]2C(=O)O [AMPHOTERICIN B] |  |  |  |  | 100 µg/mL (≈ 108 µM) | 100 µg/mL (≈ 108 µM) |  |  |  |  |  |  |  |  |  |  | 13.6 mm | 14.3 mm | 
7 | COc1ccc2c(c1)c(CC(=O)O)c(C)n2C(=O)c1ccc(Cl)cc1 [INDOMETHACIN] |  |  |  |  |  |  |  |  |  |  |  |  |  |  |  |  |  |  | inhibition in vivo at 4 mg/kg [15]: 69.6%; inhibition in vivo at 4 mg/kg [16]: 74.7%; inhibition in vivo at 4 mg/kg [17]: 77.2%; inhibition in vivo at 4 mg/kg [18]: 81.9%
8 | COc1ccc(C2=NN(c3ccc(S(N)(=O)=O)cc3)C(c3cccc(OC)c3OC)C2)c(O)c1 (centres undefined) |  |  | 64 µg/mL (≈ 132 µM) | 32 µg/mL (≈ 66.2 µM) | 128 µg/mL (≈ 265 µM) | 64 µg/mL (≈ 132 µM) | inactive | 47.8% | 45% | inactive | 43.8% | 20.6 mm | 18.6 mm | 25.2% |  |  | 15.6 mm | 14.3 mm | 

Continued, in another order:

Row | MIC [2] | MIC [10] | MIC [13] | MIC [14] | MIC ([2]; MTCC 227, 24 h) | MIC ([10]; MTCC 170, 24 h) | SMILES | Activity [1] | inhibition in vivo at 50 mg/kg [3] | inhibition in vivo at 50 mg/kg [4] | Activity [5] | inhibition in vivo at 50 mg/kg [6] | zone of inhibition at 4000 µg/mL [7] | zone of inhibition at 4000 µg/mL [8] | inhibition in vivo at 50 mg/kg [9] | diameter of the inhibition zone (DIZ) [11] | diameter of the inhibition zone (DIZ) [12] | zone of inhibition at 4000 µg/mL [11] | zone of inhibition at 4000 µg/mL [12] | further results
9 | inactive | inactive | 256 µg/mL (≈ 562 µM) | 128 µg/mL (≈ 281 µM) |  |  | COc1ccc(C2CC(c3ccc(F)cc3)=NN2c2ccc(S(N)(=O)=O)cc2)cc1OC (centres undefined) | inactive | 62.3% | 62.8% | inactive | 53.1% | 15.3 mm | 14 mm | 53.5% | inactive | inactive |  |  | 
10 |  |  | 128 µg/mL (≈ 281 µM) | 64 µg/mL (≈ 141 µM) | 128 µg/mL (≈ 281 µM) | 64 µg/mL (≈ 141 µM) | COc1cccc(C2CC(c3ccc(F)cc3)=NN2c2ccc(S(N)(=O)=O)cc2)c1OC (centres undefined) | inactive | 59.4% | 53.8% | inactive | 51.5% | 18.3 mm | 17.6 mm | 40.1% |  |  | 15.6 mm | 13.6 mm | 
11 | inactive | inactive | 256 µg/mL (≈ 562 µM) | 128 µg/mL (≈ 281 µM) |  |  | COc1ccc(OC)c(C2CC(c3ccc(F)cc3)=NN2c2ccc(S(N)(=O)=O)cc2)c1 (centres undefined) | inactive | 50.7% | 48.3% | inactive | 41.7% | 15 mm | 13.6 mm | 30.7% | inactive | inactive |  |  | 
12 |  |  | 256 µg/mL (≈ 542 µM) | 128 µg/mL (≈ 271 µM) | 64 µg/mL (≈ 136 µM) | 32 µg/mL (≈ 67.8 µM) | COc1cccc(C2CC(c3ccc(Cl)cc3)=NN2c2ccc(S(N)(=O)=O)cc2)c1OC (centres undefined) | inactive | 18.8% | 46.1% | inactive | 27.8% | 15 mm | 13.6 mm | 35.4% |  |  | 17.3 mm | 15.3 mm | 
13 |  |  | 64 µg/mL (≈ 136 µM) | 64 µg/mL (≈ 136 µM) | 128 µg/mL (≈ 271 µM) | 64 µg/mL (≈ 136 µM) | COc1ccc(C2CC(c3ccc(Cl)cc3)=NN2c2ccc(S(N)(=O)=O)cc2)c(OC)c1 (centres undefined) | inactive | 43.5% | 57.2% | inactive | 32.9% | 19.3 mm | 18.3 mm | 48.8% |  |  | 16 mm | 13.6 mm | 
14 | inactive | inactive | 128 µg/mL (≈ 281 µM) | 128 µg/mL (≈ 281 µM) |  |  | COc1ccc(C2CC(c3ccc(F)cc3)=NN2c2ccc(S(N)(=O)=O)cc2)c(OC)c1 (centres undefined) | inactive | 63.7% | 47.7% | inactive | 47.9% | 16.3 mm | 15.3 mm | 35.4% | inactive | inactive |  |  | 
15 |  |  | 128 µg/mL (≈ 271 µM) | 64 µg/mL (≈ 136 µM) | 128 µg/mL (≈ 271 µM) | 32 µg/mL (≈ 67.8 µM) | COc1ccc(OC)c(C2CC(c3ccc(Cl)cc3)=NN2c2ccc(S(N)(=O)=O)cc2)c1 (centres undefined) | inactive | 14.5% | 58.9% | inactive | 45.4% | 18.6 mm | 15.3 mm | 48.8% |  |  | 17.6 mm | 14.3 mm | 
16 | inactive | inactive | > 256 µg/mL | 256 µg/mL (≈ 562 µM) |  |  | COc1cc(OC)cc(C2CC(c3ccc(F)cc3)=NN2c2ccc(S(N)(=O)=O)cc2)c1 (centres undefined) | inactive | 49.3% | 51.1% | inactive | 50% | 13.6 mm | 12.6 mm | 33.1% | inactive | inactive |  |  | 
